The term IC50 denotes the midpoint of a concentration-inhibition curve.

The subject of this assay is human monocytic cell line U937. The experiment in a line: Human U937 cellular necroptosis assay. It is filed as cell-based. To be noted: U-937; U937 cells stimulated with 25 ng/mL human TNFalpha and 25 μM z-VAD-FMK; 22 hr; viability by Cell Titer-Glo 2.0; read-out: hU937 IC50. How it is done:
Human U937 Cellular Necroptosis Assay
The human monocytic cell line U937 (CRL-1593.2) may be purchased from ATCC. The cells are routinely maintained in RPMI-1640 Medium (Gibco, Catalog #11875-093) supplemented with 10% heat inactivated fetal bovine serum (Gibco, Catalog #16140-071), 100 units/mL penicillin and 100 μg/mL streptomycin (Gibco, Catalog #15140-122), in a humidified incubator (37° C., 5% CO2). For the assay, cells are resuspended in RPMI-1640 phenol red free Media (Gibco, Catalog #11835-030) supplemented with 10% fetal bovine serum (Sigma, Catalog #F2442), 100 units/mL penicillin and 100 ug/mL streptomycin. Cells are stimulated with 25 ng/mL human TNFalpha (Cell Sciences, Catalog #CSI15659B) and 25 μM z-VAD-FMK (R&D Systems, Catalog #FMK001) followed by seeding 5000 cells per well in a volume of 40 μL to a white, CulturPlate-384 (Perkin Elmer, Catalog #6007680). Stock solutions of the test compounds are prepared in 100% DMSO (Sigma, Catalog #D2650) and serially diluted 1:3 using 100% DMSO. Compounds are additionally diluted 1:40 in assay medium, and 10 μL/well was transferred to the plate. Following the compound addition, the plate is incubated at 37° C. and 5% CO2 for 22 hr. After 22 hr, viability is assessed with the addition of 20 μL of Cell Titer-Glo 2.0 (Promega, Catalog #G9243). The tissue culture plate is shaken on an orbital shaker at 300 RPM for 15 minutes at room temperature in the dark. Luminescence is measured using a PerkinElmer Envision™ plate reader. IC50 values are calculated using a four-parameter logistic curve fit using Genedata Screener software. Compounds disclosed herein are expected to have activity in this assay.
In the case of `CN1C(=O)[C@@H](NC(=O)c2ncc(Cl)c(-c3ccc(Cl)cc3)n2)COc2cccnc21` [Example 52, (S)-5-chloro-4-(4-chlorophenyl)-N-(5-methyl-4-oxo-2,3,4,5-tetrahydro-pyrido[3,2-b][1,4]oxazepin-3-yl)pyrimidine-2-carboxamide], the IC50 came out at 12 nM.

On to `Cc1ccc(-c2nc(C(=O)N[C@H]3COc4cccnc4N(C)C3=O)ncc2Cl)c(F)c1` [Example 53, (S)-5-chloro-4-(2-fluoro-4-methylphenyl)-N-(5-methyl-4-oxo-2,3,4,5-tetrahydro-pyrido[3,2-b][1,4]oxazepin-3-yl)pyrimidine-2-carboxamide], for which the IC50 was 11.7 nM.

On to `Cc1ccc(-c2nc(C(=O)N[C@H]3COc4cccnc4N(C)C3=O)ncc2Cl)cc1F` [Example 54, (S)-5-chloro-4-(3-fluoro-4-methylphenyl)-N-(5-methyl-4-oxo-2,3,4,5-tetrahydro-pyrido[3,2-b][1,4]oxazepin-3-yl)pyrimidine-2-carboxamide], for which the IC50 turned out to be 13.6 nM.

Turning to `C[C@H]1Oc2cccnc2N(C)C(=O)[C@H]1NC(=O)c1ncc(Cl)c(-c2ccc(F)cc2F)n1` [Example 55, 5-chloro-4-(2,4-difluorophenyl)-N-((2R,3S)-2,5-dimethyl-4-oxo-2,3,4,5-tetrahydropyrido[3,2-b]-[1,4]oxazepin-3-yl)pyrimidine-2-carboxamide], the IC50 came to 34.4 nM.

Consider `CN1C(=O)[C@@H](NC(=O)c2ncc(Cl)c(-c3cncc(F)c3)n2)COc2cccnc21` [Example 56, (S)-5-chloro-4-(5-fluoropyridin-3-yl)-N-(5-methyl-4-oxo-2,3,4,5-tetrahydropyrido[3,2-b]-[1,4]oxazepin-3-yl)pyrimidine-2-carboxamide], for which the IC50 is 180 nM.

Regarding `Cc1cnc(C(=O)N[C@H]2COc3cccnc3N(C)C2=O)nc1C12CCC(CC1)CC2` [Example 57, (S)-4-(bicyclo[2.2.2]octan-1-yl)-5-methyl-N-(5-methyl-4-oxo-2,3,4,5-tetrahydro-pyrido[3,2-b][1,4]oxazepin-3-yl)pyrimidine-2-carboxamide], the IC50 is 90.9 nM.

Consider `Cc1cnc(C(=O)N[C@H]2COc3cccnc3N(C)C2=O)nc1C1CCOCC1` [Example 58, (S)-5-methyl-N-(5-methyl-4-oxo-2,3,4,5-tetrahydro-pyrido[3,2-b][1,4]oxazepin-3-yl)-4-(tetrahydro-2H-pyran-4-yl)pyrimidine-2-carboxamide], for which the IC50 amounted to 229 nM.

Take `Cc1cnc(C(=O)N[C@H]2COc3cccnc3N(C)C2=O)nc1-c1cccc(F)c1F` [Example 59, (S)-4-(2,3-difluorophenyl)-5-methyl-N-(5-methyl-4-oxo-2,3,4,5-tetrahydropyrido[3,2-b]-[1,4]oxazepin-3-yl)pyrimidine-2-carboxamide]: the IC50 worked out at 13.9 nM.

On to `Cc1cnc(C(=O)N[C@H]2COc3cccnc3N(C)C2=O)nc1-c1ccc(F)cc1F` [Example 60, (S)-4-(2,4-difluorophenyl)-5-methyl-N-(5-methyl-4-oxo-2,3,4,5-tetrahydropyrido[3,2-b]-[1,4]oxazepin-3-yl)pyrimidine-2-carboxamide], for which the IC50 came out at 16.2 nM.

Consider `Cc1ccc(-c2nc(C(=O)N[C@H]3COc4cccnc4N(C)C3=O)ncc2C)c(F)c1` [Example 61, (S)-4-(2-fluoro-4-methylphenyl)-5-methyl-N-(5-methyl-4-oxo-2,3,4,5-tetrahydropyrido[3,2-b]-[1,4]oxazepin-3-yl)pyrimidine-2-carboxamide], for which the IC50 was found to be 16.1 nM.

Regarding `Cc1ccc(-c2nc(C(=O)N[C@H]3COc4cccnc4N(C)C3=O)ncc2C)cc1F` [Example 62, (S)-4-(3-fluoro-4-methylphenyl)-5-methyl-N-(5-methyl-4-oxo-2,3,4,5-tetrahydropyrido[3,2-b]-[1,4]oxazepin-3-yl)pyrimidine-2-carboxamide], the IC50 amounted to 10.4 nM.

As to `Cc1cc(F)ccc1-c1ccnc(C(=O)N[C@H]2COc3cc(F)cnc3N(C)C2=O)n1` [Example 63, (S)-4-(4-fluoro-2-methylphenyl)-N-(8-fluoro-5-methyl-4-oxo-2,3,4,5-tetrahydropyrido[3,2-b]-[1,4]oxazepin-3-yl)pyrimidine-2-carboxamide], the IC50 came out at 117 nM.

`Cc1cc(F)cc(F)c1-c1ccnc(C(=O)N[C@H]2COc3cc(F)cnc3N(C)C2=O)n1` [Example 64, (S)-4-(2,4-difluoro-6-methylphenyl)-N-(8-fluoro-5-methyl-4-oxo-2,3,4,5-tetrahydropyrido[3,2-b]-[1,4]oxazepin-3-yl)pyrimidine-2-carboxamide]: the IC50 was found to be 189 nM.

For `Cc1cccc(-c2ccnc(C(=O)N[C@H]3COc4cc(F)cnc4N(C)C3=O)n2)c1` [Example 65, (S)-N-(8-fluoro-5-methyl-4-oxo-2,3,4,5-tetrahydro-pyrido[3,2-b][1,4]oxazepin-3-yl)-4-(m-tolyl)pyrimidine-2-carboxamide], the IC50 worked out at 177 nM.

For the compound `CN1C(=O)[C@@H](NC(=O)c2ncc(F)c(-c3ccc(F)cc3)n2)COc2cc(F)cnc21` [Example 66, (S)-5-fluoro-N-(8-fluoro-5-methyl-4-oxo-2,3,4,5-tetrahydropyrido[3,2-b]-[1,4]oxazepin-3-yl)-4-(4-fluorophenyl)pyrimidine-2-carboxamide], the 50% inhibitory concentration (IC50) came to 106 nM.

With `Cc1cc(F)ccc1-c1nc(C(=O)N[C@H]2COc3cc(F)cnc3N(C)C2=O)ncc1F` [Example 67, (S)-5-fluoro-4-(4-fluoro-2-methylphenyl)-N-(8-fluoro-5-methyl-4-oxo-2,3,4,5-tetrahydropyrido[3,2-b]-[1,4]oxazepin-3-yl)pyrimidine-2-carboxamide], the IC50 was 24.7 nM.

As for `CN1C(=O)[C@@H](NC(=O)c2ncc(Cl)c(-c3ccccc3)n2)COc2cc(F)cnc21` [Example 69, (S)-5-chloro-N-(8-fluoro-5-methyl-4-oxo-2,3,4,5-tetrahydropyrido[3,2-b]-[1,4]oxazepin-3-yl)-4-phenylpyrimidine-2-carboxamide], the IC50 amounted to 7.41 nM.

In the case of `CN1C(=O)[C@@H](NC(=O)c2ncc(Cl)c(-c3cccc(F)c3)n2)COc2cc(F)cnc21` [Example 70, (S)-5-chloro-N-(8-fluoro-5-methyl-4-oxo-2,3,4,5-tetrahydropyrido[3,2-b]-[1,4]oxazepin-3-yl)-4-(3-fluorophenyl)pyrimidine-2-carboxamide], the IC50 stood at 9.94 nM.

For the compound `CN1C(=O)[C@@H](NC(=O)c2ncc(Cl)c(-c3ccc(F)cc3)n2)COc2cc(F)cnc21` [Example 71, (S)-5-chloro-N-(8-fluoro-5-methyl-4-oxo-2,3,4,5-tetrahydropyrido[3,2-b]-[1,4]oxazepin-3-yl)-4-(4-fluorophenyl)pyrimidine-2-carboxamide], the IC50 is 8.83 nM.

With `CN1C(=O)[C@@H](NC(=O)c2ncc(Cl)c(-c3cccc(F)c3F)n2)COc2cc(F)cnc21` [Example 72, (S)-5-chloro-4-(2,3-difluorophenyl)-N-(8-fluoro-5-methyl-4-oxo-2,3,4,5-tetrahydropyrido[3,2-b]-[1,4]oxazepin-3-yl)pyrimidine-2-carboxamide], the IC50 was 25.5 nM.

Turning to `CN1C(=O)[C@@H](NC(=O)c2ncc(Cl)c(-c3ccc(F)cc3F)n2)COc2cc(F)cnc21` [Example 73, (S)-5-chloro-4-(2,4-difluorophenyl)-N-(8-fluoro-5-methyl-4-oxo-2,3,4,5-tetrahydropyrido[3,2-b]-[1,4]oxazepin-3-yl)pyrimidine-2-carboxamide], the IC50 was 11.4 nM.

On to `CN1C(=O)[C@@H](NC(=O)c2ncc(Cl)c(-c3cc(F)ccc3F)n2)COc2cc(F)cnc21` [Example 74, (S)-5-chloro-4-(2,5-difluorophenyl)-N-(8-fluoro-5-methyl-4-oxo-2,3,4,5-tetrahydropyrido[3,2-b]-[1,4]oxazepin-3-yl)pyrimidine-2-carboxamide], for which the 50% inhibitory concentration (IC50) turned out to be 11 nM.

In the case of `CN1C(=O)[C@@H](NC(=O)c2ncc(Cl)c(-c3ccc(F)c(F)c3)n2)COc2cc(F)cnc21` [Example 75, (S)-5-chloro-4-(3,4-difluorophenyl)-N-(8-fluoro-5-methyl-4-oxo-2,3,4,5-tetrahydropyrido[3,2-b]-[1,4]oxazepin-3-yl)pyrimidine-2-carboxamide], the IC50 was determined as 11.9 nM.

As for `CN1C(=O)[C@@H](NC(=O)c2ncc(Cl)c(-c3cc(F)cc(F)c3)n2)COc2cc(F)cnc21` [Example 76, (S)-5-chloro-4-(3,5-difluorophenyl)-N-(8-fluoro-5-methyl-4-oxo-2,3,4,5-tetrahydropyrido [3,2-b]-[1,4]oxazepin-3-yl)pyrimidine-2-carboxamide], the IC50 is 16.5 nM.

In the case of `Cc1ccc(-c2nc(C(=O)N[C@H]3COc4cc(F)cnc4N(C)C3=O)ncc2Cl)c(F)c1` [Example 77, (S)-5-chloro-4-(2-fluoro-4-methylphenyl)-N-(8-fluoro-5-methyl-4-oxo-2,3,4,5-tetrahydropyrido[3,2-b]-[1,4]oxazepin-3-yl)pyrimidine-2-carboxamide], the IC50 is 9.14 nM.

The values above are taken from patent US12565490B2, “Inhibitors of Receptor Interacting Protein Kinase I for the treatment of disease” (Board of Regents, The University of Texas System, priority 2020, dated 2026).
